# Key:
# Cytochrome P450 2C8 [1] = molecular target: T1, Cytochrome P450 2C8 (Homo sapiens, UniProt P10632); test: Linear mixed inhibition of CYP2C8 in human liver microsomes assessed as paclitaxel 6-hydroxylation after 20 mins by LC-MS/MS analysis; assay type: ADME
# T1 sequence (P10632 whole entry): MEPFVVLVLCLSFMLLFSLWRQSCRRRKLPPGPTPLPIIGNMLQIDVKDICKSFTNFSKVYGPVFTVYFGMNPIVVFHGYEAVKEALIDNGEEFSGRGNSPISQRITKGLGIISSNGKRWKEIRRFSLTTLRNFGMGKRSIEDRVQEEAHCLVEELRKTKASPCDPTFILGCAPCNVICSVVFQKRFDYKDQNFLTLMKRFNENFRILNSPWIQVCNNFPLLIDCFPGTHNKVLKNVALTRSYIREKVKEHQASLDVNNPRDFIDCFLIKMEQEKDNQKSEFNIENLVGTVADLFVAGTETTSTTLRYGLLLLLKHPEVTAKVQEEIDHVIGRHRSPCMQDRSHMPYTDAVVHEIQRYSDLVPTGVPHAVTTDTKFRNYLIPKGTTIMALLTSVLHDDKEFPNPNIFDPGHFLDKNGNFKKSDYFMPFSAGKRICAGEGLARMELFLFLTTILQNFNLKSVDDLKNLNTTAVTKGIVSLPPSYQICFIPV
# [2] = molecular target: T2, UDP-glucuronosyltransferase 1A1 (Homo sapiens, UniProt P22309); test: Drug metabolism assessed as human recombinant UGT1A1-mediated compound formation treated with AMG 853 at 10 uM after 30 mins by LC-MS/MS analysis; assay type: ADME; details: recombinant enzyme, 0.5 h
# T2 sequence (P22309 whole entry): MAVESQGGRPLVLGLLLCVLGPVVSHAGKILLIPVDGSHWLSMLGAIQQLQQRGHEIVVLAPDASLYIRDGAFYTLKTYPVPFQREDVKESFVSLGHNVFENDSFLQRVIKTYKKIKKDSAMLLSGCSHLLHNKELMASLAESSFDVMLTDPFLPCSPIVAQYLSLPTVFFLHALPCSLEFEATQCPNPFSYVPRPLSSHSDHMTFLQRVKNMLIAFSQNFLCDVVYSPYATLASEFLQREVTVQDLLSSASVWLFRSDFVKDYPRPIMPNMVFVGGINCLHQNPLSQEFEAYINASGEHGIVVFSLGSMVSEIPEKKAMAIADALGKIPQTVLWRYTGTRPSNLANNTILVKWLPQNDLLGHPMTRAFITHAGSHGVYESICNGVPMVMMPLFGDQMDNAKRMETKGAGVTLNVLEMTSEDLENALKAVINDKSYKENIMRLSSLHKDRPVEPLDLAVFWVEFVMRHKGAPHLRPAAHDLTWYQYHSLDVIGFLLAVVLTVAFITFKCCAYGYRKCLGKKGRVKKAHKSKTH
# [3] = molecular target: T3, UDP-glucuronosyltransferase 2B7 (Homo sapiens, UniProt P16662); test: Drug metabolism assessed as human recombinant UGT2B7-mediated compound formation treated with AMG 853 at 10 uM after 30 mins by LC-MS/MS analysis; assay type: ADME; details: recombinant enzyme, 0.5 h
# T3 sequence (P16662 whole entry): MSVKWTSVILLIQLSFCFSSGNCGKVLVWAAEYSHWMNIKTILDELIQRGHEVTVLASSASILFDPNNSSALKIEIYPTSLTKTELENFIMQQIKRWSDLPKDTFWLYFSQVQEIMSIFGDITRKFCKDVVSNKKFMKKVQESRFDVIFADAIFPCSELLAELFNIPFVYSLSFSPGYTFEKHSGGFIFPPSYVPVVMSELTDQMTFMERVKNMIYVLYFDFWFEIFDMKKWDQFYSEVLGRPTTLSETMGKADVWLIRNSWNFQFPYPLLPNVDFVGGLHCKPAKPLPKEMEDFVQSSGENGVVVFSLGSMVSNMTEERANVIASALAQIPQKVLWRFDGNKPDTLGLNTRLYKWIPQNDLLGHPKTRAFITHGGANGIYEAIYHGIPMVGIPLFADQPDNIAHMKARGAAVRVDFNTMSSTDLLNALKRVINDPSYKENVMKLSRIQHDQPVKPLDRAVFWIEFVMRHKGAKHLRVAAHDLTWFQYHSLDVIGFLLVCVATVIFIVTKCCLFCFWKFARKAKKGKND
# Cytochrome P450 2C8 [4] = molecular target: T1, Cytochrome P450 2C8; test: Linear mixed inhibition of CYP2C8 in human liver microsomes assessed as rosiglitazone demethylation after 20 mins by LC-MS/MS analysis; assay type: ADME
# [5] = molecular target: T3, UDP-glucuronosyltransferase 2B7; test: Drug metabolism assessed as human recombinant UGT2B7-mediated compound formation treated with AMG 853 after 45 mins by LC-MS/MS analysis in presence of UDPGA; assay type: ADME; details: recombinant enzyme, 0.75 h
# [6] = molecular target: UDP-glucuronosyltransferase 1A7 (Homo sapiens, UniProt Q9HAW7); test: Drug metabolism assessed as human recombinant UGT1A7-mediated (2S,3S,4S,5R,6S)-6-(2-(4-(4-(tert-butylcarbamoyl)-2-(2-chloro-4-cyclopropylphenylsulfonamido)phenoxy)-5-chloro-2-fluorophenyl)acetoxy)-3,4,5-trihydroxytetrahydro-2H-pyran-2-carboxylic acid formation at 10 uM after 30 mins by LC-MS/MS analysis; assay type: ADME; details: recombinant enzyme, 0.5 h
# Sequence of UDP-glucuronosyltransferase 1A7 (Q9HAW7 whole entry): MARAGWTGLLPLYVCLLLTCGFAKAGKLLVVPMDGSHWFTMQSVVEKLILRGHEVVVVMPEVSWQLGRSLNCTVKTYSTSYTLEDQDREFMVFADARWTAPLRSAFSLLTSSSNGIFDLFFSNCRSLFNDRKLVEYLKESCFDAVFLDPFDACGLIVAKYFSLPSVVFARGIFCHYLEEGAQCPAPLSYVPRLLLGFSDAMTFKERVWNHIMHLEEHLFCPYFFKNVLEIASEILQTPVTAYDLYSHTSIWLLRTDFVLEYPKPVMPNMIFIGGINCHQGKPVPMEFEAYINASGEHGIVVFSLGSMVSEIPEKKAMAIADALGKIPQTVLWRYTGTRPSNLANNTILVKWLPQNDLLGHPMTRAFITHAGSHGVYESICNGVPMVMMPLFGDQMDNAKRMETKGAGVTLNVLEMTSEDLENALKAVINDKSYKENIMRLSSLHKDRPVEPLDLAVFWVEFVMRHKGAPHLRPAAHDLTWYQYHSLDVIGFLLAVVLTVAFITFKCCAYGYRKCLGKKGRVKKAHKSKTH
# Cytochrome P450 3A4 [7] = molecular target: T4, Cytochrome P450 3A4 (Homo sapiens, UniProt P08684); test: Drug metabolism assessed as recombinant CYP3A4 (unknown origin)-mediated 2-(4-(4-(tert-butylcarbamoyl)-2-(2-chloro-4-(1-hydroxycyclopropyl)phenylsulfonamido)phenoxy)-5-chloro-2-fluorophenyl)acetic acid formation at 10 uM after 30 mins by LC-MS/MS analysis; assay type: ADME; details: recombinant enzyme, 0.5 h
# T4 sequence (P08684 whole entry): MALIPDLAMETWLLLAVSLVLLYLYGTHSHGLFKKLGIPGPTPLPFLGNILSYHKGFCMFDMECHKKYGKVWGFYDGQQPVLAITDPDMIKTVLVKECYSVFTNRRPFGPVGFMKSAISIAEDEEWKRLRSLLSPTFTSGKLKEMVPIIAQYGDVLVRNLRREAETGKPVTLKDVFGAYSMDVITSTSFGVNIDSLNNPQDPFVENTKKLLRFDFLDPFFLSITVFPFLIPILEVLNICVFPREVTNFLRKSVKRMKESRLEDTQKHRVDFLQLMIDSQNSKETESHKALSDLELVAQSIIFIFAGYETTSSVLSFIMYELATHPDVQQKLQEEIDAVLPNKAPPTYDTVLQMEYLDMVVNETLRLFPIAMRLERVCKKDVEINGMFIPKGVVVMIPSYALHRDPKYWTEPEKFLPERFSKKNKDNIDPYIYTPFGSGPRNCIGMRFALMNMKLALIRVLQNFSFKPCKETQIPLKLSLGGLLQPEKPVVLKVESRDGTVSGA
# CYP2C9 = test: Upregulation of CYP2C9 mRNA expression in human hepatocytes at 0.3 to 30 uM treated every 24 hrs for 2 days measured on day 5 relative to control; assay type: ADME, cell-based, Hepatocyte; details: read-out: FC
# [8] = Drug metabolism in human liver microsomes assessed as CYP3A5*1/*1-mediated (2S,3S,4S,5R,6S)-6-(2-(4-(4-(tert-butylcarbamoyl)-2-(2-chloro-4-cyclopropylphenylsulfonamido)phenoxy)-5-chloro-2-fluorophenyl)acetoxy)-3,4,5-trihydroxytetrahydro-2H-pyran-2-carboxylic acid formation after 15 mins by LC-MS/MS analysis in presence of UDPGA; assay type: ADME; details: 0.25 h
# Cytochrome P450 3A4 [9] = molecular target: T4, Cytochrome P450 3A4; test: Drug metabolism assessed as recombinant CYP3A4 (unknown origin)-mediated 2-(5-chloro-4-(2-(2-chloro-4-cyclopropylphenylsulfonamido)-4-(1-hydroxy-2-methylpropan-2-ylcarbamoyl)phenoxy)-2-fluorophenyl)acetic acid formation at 10 uM after 30 mins by LC-MS/MS analysis; assay type: ADME; details: recombinant enzyme, 0.5 h
# Cytochrome P450 2C8 [10] = molecular target: T1, Cytochrome P450 2C8; test: Competitive inhibition of CYP2C8 in human liver microsomes assessed as paclitaxel 6-hydroxylation after 20 mins by LC-MS/MS analysis; assay type: ADME
# Cytochrome P450 2C8 [11] = molecular target: T1, Cytochrome P450 2C8; test: Drug metabolism assessed as recombinant CYP2C8 (unknown origin)-mediated 2-(5-chloro-4-(2-(2-chloro-4-cyclopropylphenylsulfonamido)-4-(1-hydroxy-2-methylpropan-2-ylcarbamoyl)phenoxy)-2-fluorophenyl)acetic acid formation at 10 uM after 30 mins by LC-MS/MS analysis; assay type: ADME; details: recombinant enzyme, 0.5 h
# CYP3A4 = test: Upregulation of CYP3A4 mRNA expression in human hepatocytes at 0.3 to 30 uM treated every 24 hrs for 2 days measured on day 5 relative to control; assay type: ADME, cell-based, Hepatocyte; details: read-out: FC
# Liver microsome = test: Drug metabolism in human liver microsomes assessed as 2-(4-(4-(tert-butylcarbamoyl)-2-(2-chloro-4-(1-hydroxycyclopropyl)phenylsulfonamido)phenoxy)-5-chloro-2-fluorophenyl)acetic acid formation at 2 uM after 60 mins by LC-MS/MS analysis in presence of montelukast; assay type: ADME; details: 1 h
# Cytochrome P450 2C19 = Cytochrome P450 2C19 (Homo sapiens, UniProt P33261); test: Drug metabolism assessed as recombinant CYP2C19 (unknown origin)-mediated 2-(4-(4-(tert-butylcarbamoyl)-2-(2-chloro-4-(1-hydroxycyclopropyl)phenylsulfonamido)phenoxy)-5-chloro-2-fluorophenyl)acetic acid formation at 10 uM after 30 mins by LC-MS/MS analysis; assay type: ADME; details: recombinant enzyme, 0.5 h
# Sequence of Cytochrome P450 2C19 (P33261 whole entry): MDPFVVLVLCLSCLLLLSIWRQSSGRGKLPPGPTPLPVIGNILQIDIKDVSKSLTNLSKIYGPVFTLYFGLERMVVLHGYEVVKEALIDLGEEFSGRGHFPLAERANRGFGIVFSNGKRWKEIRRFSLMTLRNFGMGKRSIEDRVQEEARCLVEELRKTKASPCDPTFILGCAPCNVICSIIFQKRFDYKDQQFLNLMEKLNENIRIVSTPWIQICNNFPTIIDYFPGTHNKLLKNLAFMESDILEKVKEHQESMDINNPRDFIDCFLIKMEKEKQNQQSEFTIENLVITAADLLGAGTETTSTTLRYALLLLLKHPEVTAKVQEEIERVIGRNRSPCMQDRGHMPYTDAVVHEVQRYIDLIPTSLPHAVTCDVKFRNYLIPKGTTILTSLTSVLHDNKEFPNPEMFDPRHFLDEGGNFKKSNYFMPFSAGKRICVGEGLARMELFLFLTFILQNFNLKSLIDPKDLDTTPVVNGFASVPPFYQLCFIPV
SMILES,Ki (Cytochrome P450 2C8 [1]) [nM],Drug metabolism [2],Drug metabolism [3],Ki (Cytochrome P450 2C8 [4]) [nM],S50 [5] [µM],Vmax [5] [pmol/min/mg],Drug metabolism [6],Drug metabolism (Cytochrome P450 3A4 [7]),"fold induction at 48 h, up to 30 µM (CYP2C9)",Drug metabolism [8],Drug metabolism (Cytochrome P450 3A4 [9]),Ki (Cytochrome P450 2C8 [10]) [nM],Drug metabolism (Cytochrome P450 2C8 [11]),"fold induction at 48 h, up to 30 µM (CYP3A4)",Drug metabolism (Liver microsome),Drug metabolism (Cytochrome P450 2C19)
CC(C)(C)NC(=O)c1ccc(Oc2cc(F)c(CC(=O)O[C@@H]3O[C@H](C(=O)O)[C@@H](O)[C@H](O)[C@H]3O)cc2Cl)c(NS(=O)(=O)c2ccc(C3CC3)cc2Cl)c1,2700,metabolite_detected,metabolite_detected,6900,183.4,13.6,,,,,,,,,,
CC(C)(C)NC(=O)c1ccc(Oc2cc(F)c(CC(=O)O)cc2Cl)c(NS(=O)(=O)c2ccc(C3CC3)cc2Cl)c1 [VIDUPIPRANT],,,,,,,metabolite_not_detected,metabolite_detected,1.7,metabolite_detected,metabolite_detected,1100,metabolite_detected,1.7,metabolite_not_detected,metabolite_detected

# Source: ChEMBL document CHEMBL3526017, “Predicting the drug interaction potential of AMG 853, a dual antagonist of the D-prostanoid and chemoattractant receptor-homologous molecule expressed on T helper 2 cells receptors” (Drug Metab Dispos, 2012)
